Like-named read-outs stand apart in the source and are kept apart here.
Legend:
L3.6pl cells [1] = assay: DFMO/Spd rescue assay in L3.6pl cells; type: cell-based, human; details: for EC value in DFMO/Spd rescue assay: Table 9, ECx = y: x% effect at y μM
Protocol: In another example in the DFMO spermidine (Spd) rescue assay an EC38=8 means that the PTI molecule at 8 μM was able to block 38% of the entry of spermidine into DFMO treated L3.6 pl cells after 72 h incubation time at 37° C. Another explanation, is that the PTI was able to disrupt […] of the intracellular trafficking of Spd that leads to cell rescue. […] Since both Ant44 and Spermidine are polyamine-based systems, cells likely use one mode of the polyamine transport (basal or obligate) in each assay.
(§1) The higher EC value denotes the compound is giving a relative % growth of L3.6 pl cells consistent with inhibiting either Ant44 uptake or blocking the uptake of the rescuing dose of spermidine. Alternatively these compounds may disrupting the intracellular trafficking of Ant44 and spermidine so they cannot reach their intended intracellular target.

L3.6pl cells [2] = assay: Ant44 assay in L3.6pl cells; type: cell-based, human; details: Table 9; Ant44 3 μM; ECx = y: x% effect at y μM
Protocol: For example, in the ANT44 assay an EC48=9 means that the PTI molecule at 9 μM was able to block 48% of the Ant44 entry into L3.6 pl human Pancreatic ductal adenocarcinoma cells after 72 h incubation time at 37° C. Another explanation, is that the PTI was able to disrupt […] of the intracellular trafficking of Ant44 that leads to toxicity. Recall a polyamine transport inhibitor can work at any one (or more than one) of the different steps involved in the multi-step polyamine import and intracellular trafficking process. Blocking the entering spermidine from reaching its intended intracellular target is another way in which these compounds may function.
as §1

L3.6pl cells [3] = assay: cells; type: cell-based; details: for IC50: Homo sapiens, L3.6pl; for L3.6pl MTC: maximum tolerated concentration where cells are >90% viable
CHO cells [4] = assay: Ant44 rescue assay in CHO cells (Assay 1); type: cell-based, Chinese hamster; details: for IC50: CHO, Table 7, read-out: SAR IC50 Ant44 assay
Protocol: CHO K1 cells were grown in growth medium (RPMI+10% FBS+1×P/S+1% l-glutamine) to 70% confluency, washed in PBS and trypsinized. Cells were plated in assay medium (serum free RPMI+2% FBS+1×l-glutamine+1×P/S+[…] aminoguanidine) at 50000 cells/mL for 200 cells per well in 4 ul using a Thermo Multidrop Combi into a 1536-well white Aurora plate.
Ant44 is a cytotoxic polyamine, i.e., N^1-(9-anthracenyl)-homospermidine. A non-toxic PTI compound would block entry or intracellular trafficking of the Ant44 toxin and rescue the cells back to high viability. Therefore, this screen tested for compounds which rescued cells from Ant44 toxicity. […] This was followed by adding 10 uL of 10 uM Ant44 (FAC 2 uM) in assay medium with a Beckman BioRAPTR FRD dispenser or 10 uL of cells added in assay medium (positive control).

CHO cells [5] = assay: Cytotoxicity screen in CHO cells; details: for IC50 at 48 h: Chinese hamster, CHO K1 cells; for Tox (Ant44) / tox (DFMO Assay): toxic above the stated concentration, CHO cells; for Tox (Ant44): listed with Ant44 assay; for tox (DFMO Assay): listed with DFMO assay
Protocol: CHO K1 cells were grown in growth medium to 70% confluency and washed in PBS and trypsinized. […] Cells were spun at 100×g for 1 minute and incubated at 37° C. in a humidified CO2 incubator for 24 hours. […] Cellular ATP content was then assayed by adding 3 uL of ATPLite with a Beckman BioRAPTR FRD dispenser and incubated for 10 minutes at room temperature. Plates were spun at 200×g for 1 minute and read on a Perkin Elmer Viewlux multimode plate reader using luminescence mode. This assay was used for testing dose-response of dry powders.
CHO K1 cells were grown in growth medium to 70% confluency and washed in PBS and trypsinized. Cells were plated in assay medium at 10000 cells/mL for 200 cells per well using a Thermo Multidrop Combi in 20 uL into a white Greiner plate. Cells were spun at 100×g for 1 minute and incubated at 37° C. in a humidified CO2 incubator for 24 hours. […] This was followed by adding by 10 μL of assay medium to all wells with a Beckman BioRAPTR FRD dispenser. The plates were spun at 200×g for 1 minute and incubated at 37° C. in a humidified 5% CO2 incubator for 48 hours. Cellular ATP content was then assayed by adding 20 μL of ATPLite with a Beckman BioRAPTR FRD dispenser and incubated for 10 min at room temperature. Plates were spun at 200×g for 1 minute and read on a Perkin Elmer Envision for multimode plate reader using luminescence mode. Duplicates were run for each compound concentration, and the curves represent the average of the duplicates as percent viability.
The final compound concentration was either 20 μM or 10 μg/mL (depending upon the compound source). A successful PTI in Assay 1 would block the uptake of the toxic Ant44 probe and rescue the cells back to >90% relative growth vs an untreated control. It was critical to also evaluate the toxicity of the PTI by itself as a toxic PTI would give a false negative in Assay1 (and a false positive in Assay 2). […] Assay 2 then evaluated the ability of the compound to inhibit the uptake of a rescuing dose of Spermidine (Spd, 1 μM) into DFMO-treated CHO cells.

[6] = system: DFMO treated Chinese hamster ovary (CHO) cells; assay: DFMO/spermidine rescue assay in CHO cells (Assay 2); type: cell-based
Protocol: In the reconfirmation assay compounds were run in quadruplicate. […] A PTI compound is expected to block the entry or disrupt the intracellular trafficking of spermidine and inhibit the ability of spermidine to rescue the growth or viability of DFMO treated cells.
DFMO/Spermidine assay Here cells were treated with an inhibitor of polyamine biosynthesis (DFMO) and rescued back to high viability by the presence of exogenous polyamine (spermidine). Putative PTI compounds were screened for their ability to block the entry or intracellular trafficking of exogenous spermidine (or otherwise disrupt the intracellular trafficking of spermidine) by measuring cell viability in the presence of DFMO+spermidine+PTI compound. […] This was followed by adding 10 μL of […] and 5 μM spermidine (FAC 5 mM DFMO and 1 μM spermidine) in assay medium with a Beckman BioRAPTR FRD dispenser or 10 μL of 5 mM DFMO added in assay medium (positive control). […] A PTI compound is expected to block the entry or disrupt the intracellular trafficking of spermidine and inhibit the ability of spermidine to rescue the growth or viability of DFMO treated cells Cytotoxicity

[7] = 72 h, Table 9, read-out: 72 h IC50
[8] = Cricetulus griseus, CHO, Table 7, read-out: SAR IC50 DFMO assay
[9] = relative growth after 72 h, read-out: L3.6pl IC50
[10] = read-out: IC50 values (toxicity profile)
[11] = Cricetulus griseus, Table 1 HTS top hits, CHO cells, read-out: DFMO Assay IC50

O=C(Nc1ccc(N2CCC(Oc3ccccc3)CC2)cc1C(=O)O)c1cc2ccccc2[nH]1
EC value in DFMO/Spd rescue assay (L3.6pl cells [1]): EC30 = 9 μM | EC value in Ant44 (3 μM) assay (L3.6pl cells [2]): not working as a PTI | IC50 (L3.6pl cells [3]; [7]): 38.3 ± 0.04 µM | MTD (L3.6pl cells [3]; Table 9): 10 µM

O=C(Nc1ccc(F)cc1C(=O)O)c1ccco1
EC value in DFMO/Spd rescue assay (L3.6pl cells [1]): EC67 = 100 μM | EC value in Ant44 (3 μM) assay (L3.6pl cells [2]): EC36 = 50 μM | IC50 (L3.6pl cells [3]; [7]): > 100 µM | MTD (L3.6pl cells [3]; Table 9): >100 µM

COc1ccc(C(=O)Nc2ccc(N3CCN(c4cc(Cl)ccc4C)CC3)cc2C(=O)O)cc1 [SBI-0754479, 5-(4-(5-chloro-2-methylphenyl)piperazin-1-yl)-2-(4-methoxybenzamido)benzoic acid]
IC50 (CHO cells [4]; Cricetulus griseus): > 40 µM | IC50 at 48 h (CHO cells [5]): 13 µM | IC50 [6, 8]: 8 µM | IC50 (L3.6pl cells [3]; [9]): 16.8 ± 0.1 µM | L3.6pl MTC (L3.6pl cells [3]): 8 µM

O=C(Nc1ccc(N2CCC(Oc3ccccc3)CC2)cc1C(=O)O)c1cc2ccccc2o1
EC value in DFMO/Spd rescue assay (L3.6pl cells [1]): EC30 =10 μM | EC value in Ant44 (3 μM) assay (L3.6pl cells [2]): EC7 = 10 μM | IC50 (L3.6pl cells [3]; [7]): 44.4 ± 0.04 µM | MTD (L3.6pl cells [3]; Table 9): 10 µM

COc1ccccc1C(=O)Nc1ccc(N2CCN(c3ccccc3)CC2)cc1C(=O)O [ChemDiv F687-0884]
IC50 (L3.6pl cells [3]; [10]): > 38 µM | IC50 (L3.6pl cells [3]; [9]): 46.3 ± 0.02 µM | L3.6pl MTC (L3.6pl cells [3]): 9 µM

O=C(Nc1ccc(N2CCC(Oc3ccccc3)CC2)cc1C(=O)O)c1cccnc1
EC value in DFMO/Spd rescue assay (L3.6pl cells [1]): EC25 = 8 μM | EC value in Ant44 (3 μM) assay (L3.6pl cells [2]): Not working | IC50 (L3.6pl cells [3]; [7]): > 50 µM | MTD (L3.6pl cells [3]; Table 9): 10 µM

COc1ccccc1C(=O)Nc1ccc(N2CCN(c3ccccc3OC)CC2)cc1C(=O)O [ChemDiv F687-0882]
IC50 (L3.6pl cells [3]; [10]): > 38 µM | IC50 (L3.6pl cells [3]; [9]): > 50 µM | L3.6pl MTC (L3.6pl cells [3]): 9 µM

O=C(Nc1ccc(N2CCC(Oc3ccccc3)CC2)cc1C(=O)O)c1ccc(-c2ccc(Cl)cc2)o1
EC value in DFMO/Spd rescue assay (L3.6pl cells [1]): EC6 = 1 μM | EC value in Ant44 (3 μM) assay (L3.6pl cells [2]): Not working | IC50 (L3.6pl cells [3]; [7]): > 1 µM | MTD (L3.6pl cells [3]; Table 9): 1 µM

Cl.O=C(Nc1ccc(N2CCNCC2)cc1C(=O)O)c1ccco1
EC value in DFMO/Spd rescue assay (L3.6pl cells [1]): EC10 = 40 μM | EC value in Ant44 (3 μM) assay (L3.6pl cells [2]): EC22 = 40 μM | IC50 (L3.6pl cells [3]; [7]): > 50 µM | MTD (L3.6pl cells [3]; Table 9): 40 µM

COc1ccc(C(=O)Nc2ccc(N3CCN(c4cc(Cl)ccc4C)CC3)cc2C(=O)O)c(OC)c1 [drawing 135]
EC value in DFMO/Spd rescue assay (L3.6pl cells [1]): EC15 = 20 μM | EC value in Ant44 (3 μM) assay (L3.6pl cells [2]): inactive | IC50 (L3.6pl cells [3]; [7]): > 50 µM | MTD (L3.6pl cells [3]; Table 9): >20 µM

COc1ccc(C(=O)Nc2ccc(N3CCN(c4cc(Cl)ccc4C)CC3)cc2C(=O)O)cc1 [drawing 134]
EC value in DFMO/Spd rescue assay (L3.6pl cells [1]): EC49 = 8 μM | EC value in Ant44 (3 μM) assay (L3.6pl cells [2]): EC21 = 8 μM | IC50 (L3.6pl cells [3]; [7]): 16.8 ± 0.1 µM | MTD (L3.6pl cells [3]; Table 9): 8 µM

COc1ccc(C(=O)Nc2ccc(N3CCN(c4ccc(C(C)=O)cc4)CC3)cc2C(=O)O)cc1 [SBI-0800674]
IC50 (CHO cells [4]; Cricetulus griseus): > 40 µM | Ant44 EC50 (CHO cells [4]; Table 1 HTS top hits, CHO cells): no effect | IC50 at 48 h (CHO cells [5]): 20 µM | Tox (Ant44) (CHO cells [5]): > 5 µM | tox (DFMO Assay) (CHO cells [5]): > 10 µM | IC50 [6, 8]: 21 µM | IC50 [6, 11]: ~5 µM

COc1ccccc1C(=O)Nc1ccc(N2CCN(Cc3ccccn3)CC2)cc1C(=O)O [SBI-0814421, 2-(2-methoxybenzamido)-5-(4-(pyridin-2-ylmethyl)piperazin-1-yl)benzoic acid]
EC50 (L3.6pl cells [1]; Homo sapiens, Table 2, DFMO rescue in L3.6pl): > 10 µM | EC50 (L3.6pl cells [1]; Table 4B, DFMO-spermidine rescue): > 10 µM | IC50 (CHO cells [4]; Cricetulus griseus): > 40 µM | Active in Ant44 assay? (CHO cells [4]; Table 2, in CHO): No in CHO | IC50 at 48 h (CHO cells [5]): > 40 µM | CHO MTD (CHO cells [5]; hamster): >20 µM | activity in DFMO assay ([6]; CHO cells): some level of activity | EC50 ([6]; Cricetulus griseus, CHO, Table 2): 20 µM | IC50 ([6]; Cricetulus griseus, CHO, Table 4B, read-out: DFMO/CHO IC50): 9.5 µM | IC50 [6, 8]: 10 µM | L3.6pl MTD (L3.6pl cells [3]; Table 2): 10 µM | L3.6pl MTD (L3.6pl cells [3]; Table 4B): (10) μM

COc1ccccc1C(=O)Nc1ccc(N2CCN(c3cc(Cl)ccc3C)CC2)cc1C(=O)O [drawing 136]
EC value in DFMO/Spd rescue assay (L3.6pl cells [1]): EC29 = 5 μM | EC value in Ant44 (3 μM) assay (L3.6pl cells [2]): not working as a PTI | IC50 (L3.6pl cells [3]; [7]): 29.1 ± 0.03 µM | MTD (L3.6pl cells [3]; Table 9): >5 µM

COc1ccccc1C(=O)Nc1ccc(N2CCN(c3cccc(C)c3C)CC2)cc1C(=O)O [SBI-0800676]
IC50 (CHO cells [4]; Cricetulus griseus): 2 µM | EC50 (CHO cells [4]; Cricetulus griseus, Table 1 HTS top hits, CHO cells, read-out: Ant44 EC50): 20 µM | IC50 at 48 h (CHO cells [5]): 28 µM | Tox (Ant44) (CHO cells [5]): SBI- 0800676.0001 (20 EC50) Tox >20 μM | tox (DFMO Assay) (CHO cells [5]): SBI- 0800676.0001 (IC50 ~15, tox >15) μM | IC50 [6, 8]: 23 µM | IC50 [6, 11]: ~15 µM
